Data as given in the kinase profiling compilation of Christmann-Franck et al. (2016).

Key:
Test in all cases: KINOMEscan competition binding
Conditions in all cases: compound 10.0 µM
ADCK3 (human) = ADCK3 (human) (UniProt Q8NI60)
AURKA (human) = AURKA (human) (UniProt O14965)
AXL (human) = AXL (human) (UniProt P30530)
BRSK1 (human) = BRSK1 (human) (UniProt Q8TDC3)
CAMK4 (human) = CAMK4 (human) (UniProt Q16566)
CRK2 (P.falciparum) = CRK2 (P.falciparum) (UniProt P61075)
CSNK1D (human) = CSNK1D (human) (UniProt P48730)
CSNK2A2 (human) = CSNK2A2 (human) (UniProt P19784)
DSTYK (human) = DSTYK (human) (UniProt Q6XUX3)
ERBB3 (human) = ERBB3 (human) (UniProt P21860)
FES (human) = FES (human) (UniProt P07332)
ICK (human) = ICK (human) (UniProt Q9UPZ9)
IRAK3 (human) = IRAK3 (human) (UniProt Q9Y616)
LIMK1 (human) = LIMK1 (human) (UniProt P53667)
MAP3K10 (human) = MAP3K10 (human) (UniProt Q02779)
MAP4K3 (human) = MAP4K3 (human) (UniProt Q8IVH8)
MAP4K4 (human) = MAP4K4 (human) (UniProt O95819)
MAPK1 (human) = MAPK1 (human) (UniProt P28482)
MAPK11 (human) = MAPK11 (human) (UniProt Q15759)
MARK1 (human) = MARK1 (human) (UniProt Q9P0L2)
MATK (human) = MATK (human) (UniProt P42679)
MELK (human) = MELK (human) (UniProt Q14680)
MTOR (human) = MTOR (human) (UniProt P42345)
NLK (human) = NLK (human) (UniProt Q9UBE8)
NUAK1 (human) = NUAK1 (human) (UniProt O60285)
PDPK1 (human) = PDPK1 (human) (UniProt O15530)
PLK2 (human) = PLK2 (human) (UniProt Q9NYY3)
PLK4 (human) = PLK4 (human) (UniProt O00444)
PTK2 (human) = PTK2 (human) (UniProt Q05397)
PTK6 (human) = PTK6 (human) (UniProt Q13882)
RPS6KA2 KD1 (human) = RPS6KA2 KD1 (human) (UniProt Q15349)
RPS6KA6 KD1 (human) = RPS6KA6 KD1 (human) (UniProt Q9UK32)
STK16 (human) = STK16 (human) (UniProt O75716)
TEK (human) = TEK (human) (UniProt Q02763)
TIE1 (human) = TIE1 (human) (UniProt P35590)
YES1 (human) = YES1 (human) (UniProt P07947)

RPS6KA2 KD1 (human), sequence (Q15349 whole entry, looked up): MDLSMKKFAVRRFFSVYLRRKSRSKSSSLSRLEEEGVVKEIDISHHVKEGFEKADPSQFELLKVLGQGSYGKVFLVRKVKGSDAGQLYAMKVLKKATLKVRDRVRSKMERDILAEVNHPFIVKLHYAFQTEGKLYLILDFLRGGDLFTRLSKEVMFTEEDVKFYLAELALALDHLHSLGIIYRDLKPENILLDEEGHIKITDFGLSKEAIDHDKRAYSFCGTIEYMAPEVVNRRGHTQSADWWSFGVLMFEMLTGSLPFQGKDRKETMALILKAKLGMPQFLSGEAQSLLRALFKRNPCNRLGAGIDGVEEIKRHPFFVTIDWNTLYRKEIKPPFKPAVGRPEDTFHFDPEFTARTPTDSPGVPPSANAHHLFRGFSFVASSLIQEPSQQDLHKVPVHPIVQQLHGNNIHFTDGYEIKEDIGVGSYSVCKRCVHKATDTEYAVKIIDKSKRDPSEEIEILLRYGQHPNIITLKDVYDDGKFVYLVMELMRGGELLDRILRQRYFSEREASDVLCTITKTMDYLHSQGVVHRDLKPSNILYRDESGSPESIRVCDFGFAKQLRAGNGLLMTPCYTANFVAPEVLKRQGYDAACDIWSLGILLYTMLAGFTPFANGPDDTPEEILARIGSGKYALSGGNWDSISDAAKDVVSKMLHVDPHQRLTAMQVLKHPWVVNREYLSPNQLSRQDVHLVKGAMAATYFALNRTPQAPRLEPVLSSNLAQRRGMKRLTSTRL
MAP3K10 (human), sequence (Q02779 whole entry, looked up): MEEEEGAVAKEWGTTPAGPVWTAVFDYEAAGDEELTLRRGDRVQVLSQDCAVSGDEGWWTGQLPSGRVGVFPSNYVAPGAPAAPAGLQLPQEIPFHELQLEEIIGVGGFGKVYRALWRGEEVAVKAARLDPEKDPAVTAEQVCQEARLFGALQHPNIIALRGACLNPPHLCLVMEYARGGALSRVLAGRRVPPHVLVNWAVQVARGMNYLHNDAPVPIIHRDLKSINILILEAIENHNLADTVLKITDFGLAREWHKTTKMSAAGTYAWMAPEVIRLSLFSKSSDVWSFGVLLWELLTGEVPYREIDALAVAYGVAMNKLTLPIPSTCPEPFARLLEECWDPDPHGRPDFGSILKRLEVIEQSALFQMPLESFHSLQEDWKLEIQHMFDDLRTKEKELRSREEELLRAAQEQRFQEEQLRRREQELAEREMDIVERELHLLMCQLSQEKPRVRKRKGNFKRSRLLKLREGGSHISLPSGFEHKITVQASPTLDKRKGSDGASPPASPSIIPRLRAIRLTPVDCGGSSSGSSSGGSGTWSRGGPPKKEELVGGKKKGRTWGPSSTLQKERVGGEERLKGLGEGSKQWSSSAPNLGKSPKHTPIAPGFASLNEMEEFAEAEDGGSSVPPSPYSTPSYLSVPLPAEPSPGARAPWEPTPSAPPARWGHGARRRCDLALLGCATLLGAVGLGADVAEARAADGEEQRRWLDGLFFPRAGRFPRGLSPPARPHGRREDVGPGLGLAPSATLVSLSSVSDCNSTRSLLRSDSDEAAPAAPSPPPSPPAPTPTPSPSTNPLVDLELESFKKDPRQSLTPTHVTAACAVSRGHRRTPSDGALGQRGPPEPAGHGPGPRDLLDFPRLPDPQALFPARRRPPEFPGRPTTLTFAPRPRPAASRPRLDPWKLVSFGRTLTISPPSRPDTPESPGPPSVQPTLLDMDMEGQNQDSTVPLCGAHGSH
TIE1 (human), sequence (P35590 whole entry, looked up): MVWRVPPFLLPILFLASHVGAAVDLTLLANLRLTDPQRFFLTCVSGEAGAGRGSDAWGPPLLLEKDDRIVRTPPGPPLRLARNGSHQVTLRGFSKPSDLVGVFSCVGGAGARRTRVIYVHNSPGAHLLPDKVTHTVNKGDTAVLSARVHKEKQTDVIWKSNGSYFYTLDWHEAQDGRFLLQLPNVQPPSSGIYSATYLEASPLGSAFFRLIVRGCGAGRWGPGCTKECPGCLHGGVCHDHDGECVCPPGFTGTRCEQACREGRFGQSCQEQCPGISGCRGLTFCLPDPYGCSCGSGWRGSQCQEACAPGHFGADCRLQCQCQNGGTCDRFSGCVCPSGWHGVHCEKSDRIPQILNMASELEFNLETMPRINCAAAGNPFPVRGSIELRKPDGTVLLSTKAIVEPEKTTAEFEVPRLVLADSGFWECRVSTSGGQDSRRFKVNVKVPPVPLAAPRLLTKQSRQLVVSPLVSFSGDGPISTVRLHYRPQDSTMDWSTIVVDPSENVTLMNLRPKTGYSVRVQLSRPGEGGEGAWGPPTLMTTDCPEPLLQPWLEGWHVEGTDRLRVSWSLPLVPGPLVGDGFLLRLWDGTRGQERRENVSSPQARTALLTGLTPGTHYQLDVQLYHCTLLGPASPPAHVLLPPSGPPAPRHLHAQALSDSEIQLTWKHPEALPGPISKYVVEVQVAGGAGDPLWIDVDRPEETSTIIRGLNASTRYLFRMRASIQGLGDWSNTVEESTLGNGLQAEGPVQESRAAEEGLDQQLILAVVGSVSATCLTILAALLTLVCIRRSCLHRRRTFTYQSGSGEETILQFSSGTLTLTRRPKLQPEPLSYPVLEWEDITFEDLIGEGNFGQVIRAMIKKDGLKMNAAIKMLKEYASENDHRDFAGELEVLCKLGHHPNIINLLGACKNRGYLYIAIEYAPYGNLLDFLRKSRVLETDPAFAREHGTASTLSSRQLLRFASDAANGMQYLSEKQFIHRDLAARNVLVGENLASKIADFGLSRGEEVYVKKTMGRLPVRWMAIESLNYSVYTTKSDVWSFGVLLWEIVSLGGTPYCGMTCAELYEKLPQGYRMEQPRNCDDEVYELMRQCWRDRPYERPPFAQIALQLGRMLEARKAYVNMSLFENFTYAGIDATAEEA
MATK (human), sequence (P42679 whole entry, looked up): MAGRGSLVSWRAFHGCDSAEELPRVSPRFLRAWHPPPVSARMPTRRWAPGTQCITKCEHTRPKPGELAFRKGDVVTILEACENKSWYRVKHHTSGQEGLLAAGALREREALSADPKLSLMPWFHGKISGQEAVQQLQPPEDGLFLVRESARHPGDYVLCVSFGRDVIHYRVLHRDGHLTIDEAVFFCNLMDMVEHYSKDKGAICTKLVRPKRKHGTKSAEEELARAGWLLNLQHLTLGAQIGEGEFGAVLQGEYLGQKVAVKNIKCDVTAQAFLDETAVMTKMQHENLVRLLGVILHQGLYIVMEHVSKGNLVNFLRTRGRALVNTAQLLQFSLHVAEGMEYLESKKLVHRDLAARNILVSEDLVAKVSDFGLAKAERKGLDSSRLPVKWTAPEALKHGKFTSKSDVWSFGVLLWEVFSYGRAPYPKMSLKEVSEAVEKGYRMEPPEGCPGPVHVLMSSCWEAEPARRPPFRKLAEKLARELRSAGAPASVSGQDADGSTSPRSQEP
DSTYK (human), sequence (Q6XUX3 whole entry, looked up): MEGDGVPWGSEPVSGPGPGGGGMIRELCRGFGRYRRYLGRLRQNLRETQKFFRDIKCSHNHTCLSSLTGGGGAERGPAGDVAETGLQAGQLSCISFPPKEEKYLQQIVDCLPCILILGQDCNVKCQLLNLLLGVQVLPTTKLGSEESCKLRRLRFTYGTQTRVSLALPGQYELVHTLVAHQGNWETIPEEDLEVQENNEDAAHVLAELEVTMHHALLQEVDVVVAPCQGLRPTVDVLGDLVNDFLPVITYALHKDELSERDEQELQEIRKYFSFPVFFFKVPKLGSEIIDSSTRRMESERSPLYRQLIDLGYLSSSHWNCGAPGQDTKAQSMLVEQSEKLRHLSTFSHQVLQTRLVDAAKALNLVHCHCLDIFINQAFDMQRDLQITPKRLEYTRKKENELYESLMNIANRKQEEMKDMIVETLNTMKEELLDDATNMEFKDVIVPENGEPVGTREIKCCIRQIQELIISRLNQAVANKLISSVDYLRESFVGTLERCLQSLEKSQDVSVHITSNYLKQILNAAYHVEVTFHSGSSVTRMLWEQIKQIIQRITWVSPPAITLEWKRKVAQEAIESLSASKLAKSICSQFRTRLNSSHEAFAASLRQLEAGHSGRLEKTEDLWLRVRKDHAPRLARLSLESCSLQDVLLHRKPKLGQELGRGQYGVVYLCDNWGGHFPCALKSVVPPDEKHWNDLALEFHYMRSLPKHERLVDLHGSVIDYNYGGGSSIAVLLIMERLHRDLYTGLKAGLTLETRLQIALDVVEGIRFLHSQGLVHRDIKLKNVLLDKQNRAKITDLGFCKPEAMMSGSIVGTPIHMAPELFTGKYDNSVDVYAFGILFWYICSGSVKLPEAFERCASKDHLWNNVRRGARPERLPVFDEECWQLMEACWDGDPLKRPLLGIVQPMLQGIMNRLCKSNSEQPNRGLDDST
MARK1 (human), sequence (Q9P0L2 whole entry, looked up): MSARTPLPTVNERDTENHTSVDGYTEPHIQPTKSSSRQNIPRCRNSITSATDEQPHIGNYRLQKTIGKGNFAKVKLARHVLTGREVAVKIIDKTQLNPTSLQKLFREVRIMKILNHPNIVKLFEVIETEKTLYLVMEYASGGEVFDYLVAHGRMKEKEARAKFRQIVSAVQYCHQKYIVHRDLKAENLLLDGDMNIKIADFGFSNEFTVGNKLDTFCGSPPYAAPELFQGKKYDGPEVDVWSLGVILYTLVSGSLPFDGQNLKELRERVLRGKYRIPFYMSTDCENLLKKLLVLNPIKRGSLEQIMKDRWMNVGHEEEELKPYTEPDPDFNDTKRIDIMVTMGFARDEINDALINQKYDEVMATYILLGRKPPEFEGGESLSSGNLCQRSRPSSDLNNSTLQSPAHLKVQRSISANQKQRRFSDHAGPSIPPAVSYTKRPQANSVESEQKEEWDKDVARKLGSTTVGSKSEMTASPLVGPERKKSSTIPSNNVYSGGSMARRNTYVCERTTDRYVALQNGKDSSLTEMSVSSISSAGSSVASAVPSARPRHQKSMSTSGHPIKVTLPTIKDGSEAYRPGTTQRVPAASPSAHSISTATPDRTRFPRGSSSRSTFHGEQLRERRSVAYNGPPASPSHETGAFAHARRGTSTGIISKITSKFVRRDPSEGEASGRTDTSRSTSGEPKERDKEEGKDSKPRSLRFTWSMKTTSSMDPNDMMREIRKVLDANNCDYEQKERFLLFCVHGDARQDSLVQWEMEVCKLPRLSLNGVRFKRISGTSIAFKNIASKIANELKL

CC(C)n1nc(-c2cc3cc(O)ccc3[nH]2)c2c(N)ncnc21
kinase still bound, per cent of control (ADCK3 (human)): 57%
kinase still bound, per cent of control (AURKA (human)): 100%
kinase still bound, per cent of control (AXL (human)): 21%
kinase still bound, per cent of control (BRSK1 (human)): 1.6%
kinase still bound, per cent of control (CAMK4 (human)): 100%
kinase still bound, per cent of control (CRK2 (P.falciparum)): 93%
per cent of control (CSNK1D (human)): 2.4%
kinase still bound, per cent of control (CSNK2A2 (human)): 3.5%
kinase still bound, per cent of control (DSTYK (human)): 5.8%
kinase still bound, per cent of control (ERBB3 (human)): 0%
kinase still bound, per cent of control (FES (human)): 100%
kinase still bound, per cent of control (ICK (human)): 58%
kinase still bound, per cent of control (IRAK3 (human)): 12%
kinase still bound, per cent of control (LIMK1 (human)): 73%
kinase still bound, per cent of control (MAP3K10 (human)): 53%
kinase still bound, per cent of control (MAP4K3 (human)): 52%
kinase still bound, per cent of control (MAP4K4 (human)): 38%
kinase still bound, per cent of control (MAPK1 (human)): 100%
kinase still bound, per cent of control (MAPK11 (human)): 100%
kinase still bound, per cent of control (MARK1 (human)): 81%
kinase still bound, per cent of control (MATK (human)): 60%
kinase still bound, per cent of control (MELK (human)): 10%
kinase still bound, per cent of control (MTOR (human)): 0%
kinase still bound, per cent of control (NLK (human)): 10%
kinase still bound, per cent of control (NUAK1 (human)): 86%
kinase still bound, per cent of control (PDPK1 (human)): 96%
kinase still bound, per cent of control (PLK2 (human)): 13%
kinase still bound, per cent of control (PLK4 (human)): 2.6%
kinase still bound, per cent of control (PTK2 (human)): 100%
kinase still bound, per cent of control (PTK6 (human)): 32%
kinase still bound, per cent of control (RPS6KA2 KD1 (human)): 48%
kinase still bound, per cent of control (RPS6KA6 KD1 (human)): 4.6%
kinase still bound, per cent of control (STK16 (human)): 34%
kinase still bound, per cent of control (TEK (human)): 21%
kinase still bound, per cent of control (TIE1 (human)): 49%
kinase still bound, per cent of control (YES1 (human)): 3.2%
